Data: ChEMBL document CHEMBL2434936, “Bicyclic and tricyclic heterocycle derivatives as histamine H3 receptor antagonists for the treatment of obesity” (Bioorg Med Chem Lett, 2013)
Calls of active or inactive are those of the source. The calls are words filed in the database; no cut-off is given here.

Columns and labels:
Cytochrome P450 2C9 = Cytochrome P450 2C9 (Homo sapiens, UniProt P11712); test: Inhibition of CYP2C9 in human liver microsomes; format: ADME, Microsome
hERG (KCNH2) = hERG (KCNH2) (Homo sapiens, UniProt Q12809); test: Inhibition of human ERG channel at 5 ug/ml after 30 mins by rubidium efflux assay
Sequence of hERG (KCNH2) (Q12809 whole entry): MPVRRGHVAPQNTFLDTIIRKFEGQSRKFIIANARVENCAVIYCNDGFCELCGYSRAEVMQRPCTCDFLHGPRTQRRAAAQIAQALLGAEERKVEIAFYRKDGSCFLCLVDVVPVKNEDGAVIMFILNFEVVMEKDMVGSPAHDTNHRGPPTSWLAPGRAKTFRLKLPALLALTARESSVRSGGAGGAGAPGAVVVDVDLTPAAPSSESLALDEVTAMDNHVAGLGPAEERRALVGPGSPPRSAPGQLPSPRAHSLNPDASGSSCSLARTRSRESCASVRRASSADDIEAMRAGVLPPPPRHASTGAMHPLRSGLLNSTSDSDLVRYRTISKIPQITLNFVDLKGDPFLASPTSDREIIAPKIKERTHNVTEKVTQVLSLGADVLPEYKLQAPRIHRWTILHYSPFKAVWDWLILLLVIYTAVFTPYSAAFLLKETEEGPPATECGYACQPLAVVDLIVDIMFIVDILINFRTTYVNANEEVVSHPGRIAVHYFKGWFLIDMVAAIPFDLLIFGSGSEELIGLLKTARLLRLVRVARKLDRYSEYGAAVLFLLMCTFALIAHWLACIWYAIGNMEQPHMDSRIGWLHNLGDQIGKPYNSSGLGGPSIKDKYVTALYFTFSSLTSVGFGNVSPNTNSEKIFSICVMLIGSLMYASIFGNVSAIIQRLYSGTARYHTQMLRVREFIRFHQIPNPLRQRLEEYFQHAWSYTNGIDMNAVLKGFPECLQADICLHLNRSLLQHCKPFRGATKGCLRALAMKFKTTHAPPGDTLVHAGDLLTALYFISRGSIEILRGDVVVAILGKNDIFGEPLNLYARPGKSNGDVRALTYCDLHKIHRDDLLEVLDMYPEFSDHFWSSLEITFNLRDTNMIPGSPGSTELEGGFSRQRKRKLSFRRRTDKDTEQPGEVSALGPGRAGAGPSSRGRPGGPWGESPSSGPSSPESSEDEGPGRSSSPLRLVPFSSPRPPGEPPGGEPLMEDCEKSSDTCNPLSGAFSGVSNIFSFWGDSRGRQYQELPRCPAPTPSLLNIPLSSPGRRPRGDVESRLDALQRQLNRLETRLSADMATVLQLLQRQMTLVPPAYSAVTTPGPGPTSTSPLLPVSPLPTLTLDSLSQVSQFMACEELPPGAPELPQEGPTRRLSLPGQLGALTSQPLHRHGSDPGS

Cytochrome P450 2D6 = Cytochrome P450 2D6 (Homo sapiens, UniProt P10635); test: Inhibition of CYP2D6 in human liver microsomes; format: ADME, Microsome
Sequence of Cytochrome P450 2D6 (P10635 whole entry): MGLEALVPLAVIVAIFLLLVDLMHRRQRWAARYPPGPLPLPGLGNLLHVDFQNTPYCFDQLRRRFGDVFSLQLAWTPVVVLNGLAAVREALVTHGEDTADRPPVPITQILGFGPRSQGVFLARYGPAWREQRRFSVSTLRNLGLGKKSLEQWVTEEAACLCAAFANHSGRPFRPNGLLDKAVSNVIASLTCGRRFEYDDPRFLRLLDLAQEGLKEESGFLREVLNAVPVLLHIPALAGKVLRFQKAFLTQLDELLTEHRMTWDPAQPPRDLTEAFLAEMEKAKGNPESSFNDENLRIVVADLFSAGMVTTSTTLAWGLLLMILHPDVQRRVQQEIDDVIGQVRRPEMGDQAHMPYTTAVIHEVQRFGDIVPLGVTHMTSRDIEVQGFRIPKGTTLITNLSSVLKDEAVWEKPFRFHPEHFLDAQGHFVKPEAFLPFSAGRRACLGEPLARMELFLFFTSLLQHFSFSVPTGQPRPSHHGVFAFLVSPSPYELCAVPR

Cytochrome P450 3A4 = Cytochrome P450 3A4 (Homo sapiens, UniProt P08684); test: Inhibition of CYP3A4 in human liver microsomes; format: ADME, Microsome
Sequence of Cytochrome P450 3A4 (P08684 whole entry): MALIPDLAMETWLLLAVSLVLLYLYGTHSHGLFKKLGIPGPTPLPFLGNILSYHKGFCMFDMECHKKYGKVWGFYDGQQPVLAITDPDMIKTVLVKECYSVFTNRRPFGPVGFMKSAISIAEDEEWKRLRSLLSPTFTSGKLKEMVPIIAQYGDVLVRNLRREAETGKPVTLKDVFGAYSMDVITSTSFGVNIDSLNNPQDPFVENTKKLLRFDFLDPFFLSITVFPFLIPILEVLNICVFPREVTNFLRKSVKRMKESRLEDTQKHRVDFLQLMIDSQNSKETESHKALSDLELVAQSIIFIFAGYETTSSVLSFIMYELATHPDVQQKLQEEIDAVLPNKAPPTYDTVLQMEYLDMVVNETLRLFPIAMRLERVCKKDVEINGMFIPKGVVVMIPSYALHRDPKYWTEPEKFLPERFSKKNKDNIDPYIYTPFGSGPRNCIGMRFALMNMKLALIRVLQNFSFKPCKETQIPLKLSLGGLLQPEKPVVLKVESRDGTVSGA

Mus musculus [1] = test: Ex vivo displacement of [3H]N-alpha-methylhistamine from histamine H3 receptor in mouse cortex at 10 mg/kg, po after 4 hrs by topcount scintillation counting analysis; format: functional
Histamine H3 receptor [2] = target: Histamine H3 receptor (Mus musculus, UniProt P58406); test: Displacement of [3H]N-alpha-methylhistamine from mouse histamine H3 receptor after 30 mins by scintillation counting analysis
Sequence of Histamine H3 receptor (Mus musculus, UniProt P58406) (P58406 whole entry): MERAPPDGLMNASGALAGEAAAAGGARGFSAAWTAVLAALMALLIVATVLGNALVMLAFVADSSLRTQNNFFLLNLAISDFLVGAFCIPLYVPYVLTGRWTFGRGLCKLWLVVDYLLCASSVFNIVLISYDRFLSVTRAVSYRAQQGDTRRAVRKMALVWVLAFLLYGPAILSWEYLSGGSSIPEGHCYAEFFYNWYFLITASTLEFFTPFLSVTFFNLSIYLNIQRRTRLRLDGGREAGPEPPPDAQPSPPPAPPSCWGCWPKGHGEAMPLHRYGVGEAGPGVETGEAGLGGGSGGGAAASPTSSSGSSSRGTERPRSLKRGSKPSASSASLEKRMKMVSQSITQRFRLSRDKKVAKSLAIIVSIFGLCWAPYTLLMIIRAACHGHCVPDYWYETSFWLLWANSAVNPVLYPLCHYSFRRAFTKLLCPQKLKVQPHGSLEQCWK

Histamine H3 receptor [3] = target: Histamine H3 receptor (Homo sapiens, UniProt Q9Y5N1); test: Displacement of [3H]N-alpha-methylhistamine from human recombinant histamine H3 receptor expressed in HEK cells after 30 mins by scintillation counting analysis; format: cell-based, HEK293
Sequence of Histamine H3 receptor (Homo sapiens, UniProt Q9Y5N1) (Q9Y5N1 whole entry): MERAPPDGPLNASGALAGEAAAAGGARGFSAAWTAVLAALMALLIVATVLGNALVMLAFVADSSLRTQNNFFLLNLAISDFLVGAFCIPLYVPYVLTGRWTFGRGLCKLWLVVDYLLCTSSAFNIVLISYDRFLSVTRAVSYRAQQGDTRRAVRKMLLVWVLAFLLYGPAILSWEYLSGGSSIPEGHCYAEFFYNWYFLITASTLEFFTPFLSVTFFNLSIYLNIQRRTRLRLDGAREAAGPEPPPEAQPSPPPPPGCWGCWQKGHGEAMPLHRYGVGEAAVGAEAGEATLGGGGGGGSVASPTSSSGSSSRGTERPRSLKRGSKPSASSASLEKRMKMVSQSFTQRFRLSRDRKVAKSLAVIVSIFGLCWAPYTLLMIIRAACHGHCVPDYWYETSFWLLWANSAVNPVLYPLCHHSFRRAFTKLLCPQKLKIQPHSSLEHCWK

Mus musculus [4] = test: Ex vivo displacement of [3H]N-alpha-methylhistamine from histamine H3 receptor in mouse cortex at 3 mg/kg, po after 4 hrs by topcount scintillation counting analysis; format: functional
Mus musculus [5] = test: Ex vivo displacement of [3H]N-alpha-methylhistamine from histamine H3 receptor in mouse cortex at 1 mg/kg, po after 4 hrs by topcount scintillation counting analysis; format: functional
Mus musculus [6] = organism: Mus musculus; test: Ex vivo receptor occupancy of histamine H3 receptor in mouse brain after 72 hrs by time-course method; format: functional, organism-based
Mus musculus [7] = test: Antiobesity activity in diet-induced obesity mouse model assessed as reduction in body weight at 10 mg/kg, po after 4 days relative to vehicle-treated control; format: functional; conditions: 96 h
Mus musculus [8] = test: Antiobesity activity in diet-induced obesity mouse model assessed as reduction in body weight at 3 mg/kg, po after 4 days relative to vehicle-treated control; format: functional; conditions: 96 h
Mus musculus [9] = test: Antiobesity activity in diet-induced obesity mouse model assessed as reduction in body weight at 1 mg/kg, po after 4 days relative to vehicle-treated control; format: functional; conditions: 96 h
[10] = Drug uptake in rat brain at 100 mg/kg, po after 4 hrs by Irwin test; format: ADME, organism-based; parameters: dose 100 mg/kg, route oral; conditions: read-out: Drug uptake
[11] = Drug uptake in rat brain at 300 mg/kg, po after 4 hrs by Irwin test; format: ADME, organism-based; parameters: dose 300 mg/kg, route oral; conditions: read-out: Drug uptake
[12] = Plasma concentration in rat at 300 mg/kg, po after 4 hrs by Irwin test; format: ADME, organism-based; parameters: dose 300 mg/kg, route oral
Rattus norvegicus = test: Toxicity in rat assessed as behavioral change at 100 to 300 mg/kg, po by Irwin test; format: organism-based; parameters: dose 100-300 mg/kg, route oral; conditions: in vivo
[13] = Plasma concentration in rat at 100 mg/kg, po after 4 hrs by Irwin test; format: ADME, organism-based; parameters: dose 100 mg/kg, route oral

Sequence of Cytochrome P450 2C9 (P11712 whole entry): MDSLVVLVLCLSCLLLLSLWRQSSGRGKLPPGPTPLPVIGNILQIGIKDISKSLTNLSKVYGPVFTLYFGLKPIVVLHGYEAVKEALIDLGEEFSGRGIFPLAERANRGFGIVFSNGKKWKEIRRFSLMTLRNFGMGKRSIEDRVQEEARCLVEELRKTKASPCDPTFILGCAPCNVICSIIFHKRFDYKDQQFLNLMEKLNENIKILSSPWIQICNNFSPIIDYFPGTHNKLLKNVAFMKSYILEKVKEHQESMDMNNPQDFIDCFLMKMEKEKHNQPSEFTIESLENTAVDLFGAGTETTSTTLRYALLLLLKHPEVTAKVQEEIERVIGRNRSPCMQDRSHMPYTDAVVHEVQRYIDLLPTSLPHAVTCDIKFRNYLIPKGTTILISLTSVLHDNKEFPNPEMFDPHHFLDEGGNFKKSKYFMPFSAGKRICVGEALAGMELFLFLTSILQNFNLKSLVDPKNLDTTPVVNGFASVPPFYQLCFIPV

Row | SMILES | IC50 (Cytochrome P450 2C9) [nM] | inhibition at 0.5 h, 5 ug/ml (hERG (KCNH2)) [%] | IC50 (Cytochrome P450 2D6) [nM] | IC50 (Cytochrome P450 3A4) [nM] | inhibition in vivo at 10 mg/kg (Mus musculus [1]) [%] | Ki (Histamine H3 receptor [2]) [nM] | Ki (Histamine H3 receptor [3]) [nM] | inhibition in vivo at 3 mg/kg (Mus musculus [4]) [%] | inhibition in vivo at 1 mg/kg (Mus musculus [5]) [%] | Activity (Mus musculus [6]) | inhibition in vivo at 10 mg/kg (Mus musculus [7]) [%] | inhibition in vivo at 3 mg/kg (Mus musculus [8]) [%] | inhibition in vivo at 1 mg/kg (Mus musculus [9]) [%] | concentration at 4 h [10] [ng/g] | concentration at 4 h [11] [ng/g] | concentration at 4 h [12] [ng/mL] | Activity (Rattus norvegicus) | concentration at 4 h [13] [ng/mL]
1 | Nc1cc(CN2CCC(F)(C(=O)N3CCC(N4CCCc5ccccc5C4)CC3)CC2)ccn1 | > 30000 | 25 | > 30000 | > 30000 | 78 | 115 | 36 | – | – | – | – | – | – | – | – | – | – | –
2 | Nc1cc(CN2CCC(F)(C(=O)N3CCC(N4CCNc5ccccc5C4)CC3)CC2)ccn1 | > 30000 | 12 | > 30000 | > 30000 | – | 3 | 1 | 22 | – | – | – | – | – | – | – | – | – | –
3 | COc1ccc2c(c1)CCCN(C1CCN(C(=O)C3(F)CCN(Cc4ccnc(N)c4)CC3)CC1)C2 | > 30000 | 12 | > 30000 | > 30000 | 74 | 3 | 1 | – | – | – | – | – | – | – | – | – | – | –
4 | COc1ccc2c(c1)CN(C1CCN(C(=O)C3(F)CCN(Cc4ccnc(N)c4)CC3)CC1)CCC2 | > 30000 | 7 | > 30000 | > 30000 | 77 | 4 | 2 | – | – | – | – | – | – | – | – | – | – | –
5 | N#Cc1ccc2c(c1)CN(C1CCN(C(=O)C3(F)CCN(Cc4ccnc(N)c4)CC3)CC1)CC2 | > 30000 | 11 | > 30000 | > 30000 | – | 2 | 2 | – | 52 | – | – | – | – | – | – | – | – | –
6 | Nc1cc(CN2CCC(F)(C(=O)N3CCC(N4c5ccccc5Sc5ccccc54)CC3)CC2)ccn1 | > 30000 | 40 | > 30000 | > 30000 | 84 | 7 | 7 | – | – | – | – | – | – | – | – | – | – | –
7 | Nc1cc(CN2CCC(F)(C(=O)N3CCC(N4Cc5ccc(F)cc5C4)CC3)CC2)ccn1 | > 30000 | 4 | > 30000 | > 30000 | – | 7 | 2 | 94 | – | – | – | – | – | – | – | – | – | –
8 | Nc1cc(CN2CCC(F)(C(=O)N3CCC(N4CCc5ccccc5C4)CC3)CC2)ccn1 | > 30000 | 2 | > 30000 | > 30000 | – | 4 | 2 | – | 73 | – | – | – | – | – | – | – | – | –
9 | Nc1cc(CN2CCC(F)(C(=O)N3CCC(N4Cc5ccccc5C4)CC3)CC2)ccn1 | > 30000 | -2 | > 30000 | > 30000 | – | 4 | 2 | – | 81 | – | – | – | – | – | – | – | – | –
10 | Nc1cc(CN2CCC(F)(C(=O)N3CCC(N4c5ccccc5Sc5cccnc54)CC3)CC2)ccn1 | – | 54 | – | – | 89 | 26 | 7 | – | – | – | – | – | – | – | – | – | – | –
11 | Cc1nnc2n1-c1sccc1C(=O)N(C1CCN(C(=O)C3(F)CCN(Cc4ccnc(N)c4)CC3)CC1)C2 | > 30000 | 6 | > 30000 | > 30000 | 0 | 70 | 27 | – | – | – | – | – | – | – | – | – | – | –
12 | Cc1nnc2n1-c1sccc1CN(C1CCN(C(=O)C3(F)CCN(Cc4ccnc(N)c4)CC3)CC1)C2 | > 30000 | 9 | > 30000 | > 30000 | 14 | 2 | 1 | – | – | – | – | – | – | – | – | – | – | –
13 | Nc1cc(CN2CCC(F)(C(=O)N3CCC(N4c5ccccc5Sc5ccc(C(F)(F)F)cc54)CC3)CC2)ccn1 | – | 79 | – | – | 25 | 51 | 11 | – | – | – | – | – | – | – | – | – | – | –
14 | Nc1cc(CN2CCC(F)(C(=O)N3CCC(N4Cc5ccccc5Cc5ccccc54)CC3)CC2)ccn1 | 4000 | 50 | > 30000 | 18000 | – | 44 | 4 | – | – | – | – | – | – | – | – | – | – | –
15 | Nc1cc(CN2CCC(F)(C(=O)N3CCC(N4Cc5cccnc5C4)CC3)CC2)ccn1 | – | – | – | – | – | 15 | 7 | – | – | – | – | – | – | – | – | – | – | –
16 | Cn1c2c(c3ccccc31)CCN(C1CCN(C(=O)C3(F)CCN(Cc4ccnc(N)c4)CC3)CC1)CC2 | > 30000 | 21 | > 30000 | > 30000 | – | 46 | 15 | – | – | – | – | – | – | – | – | – | – | –
17 | Nc1cc(CN2CCC(F)(C(=O)N3CCC(N4CCc5ccccc5CC4)CC3)CC2)ccn1 | > 30000 | -2 | > 30000 | > 30000 | 98 | 3 | 1 | – | – | Active | 89 | 52 | 38 | 13700 | 47100 | 4940 | Non-toxic | 836
18 | Nc1cc(CN2CCC(F)(C(=O)N3CCC(N4Cc5ccccc5-c5ccccc5C4)CC3)CC2)ccn1 | > 30000 | 27 | 300 | 18000 | – | 4 | 2 | 91 | – | – | 65 | 38 | 28 | – | – | – | – | –
